# Measurements as given in US9561228B2 (Celgene Avilomics Research, Inc., priority 2013, dated 2017).
# Experiments:
# Assay type in all cases: cell-based
# [1] = tested on: A375 cells (malignant melanoma); test: Inhibition of cancer cell proliferation, A375 (CellTiterGlo, 72 hours); settings: Homo sapiens, A-375
# Method in brief: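 GI50 derived from % growth inhibition relative to untreated wells, after luminescence (CellTiterGlo, 10 min) was converted to cell counts using a standard curve. Compound given as 3-fold dilutions from a 2× 5,000 nM stock in serum-free DMEM; 3000 A375 cells/well, 72 h culture at 37 °C.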
# [2] = tested on: HT-29 cells (colorectal adenocarcinoma); test: Inhibition of cancer cell proliferation, HT-29 (CellTiterGlo, 72 hours); settings: Homo sapiens
# Method in brief: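 Proliferation over 72 h at 37° C was read by CellTiterGlo luminescence, translated to cell counts with a cell-density standard curve (390–50,000 cells). Compound added as 3-fold dilutions from a 5,000 nM two-fold stock to 3000 seeded HT-29 cells; GI50 from percent inhibition relative to untreated wells.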
# [3] = tested on: HCT116 cells (colorectal carcinoma); test: Inhibition of cancer cell proliferation, HCT116 (CellTiterGlo, 72 hours); settings: Homo sapiens, HCT-116
# Protocol: Measurement of Inhibition of Cancer Cell Proliferation (HCT116/Colorectal Carcinoma)
# The following protocol used a HCT116 cell line, which cell line is a model for colorectal carcinoma. HCT116 cells were split and 3000 cells in 100 μl of growth medium were added per well of a flat-bottom 96-well plate. A two-fold test compound solution in serum-free RPM1640 was made, starting at 5,000 nM. Then, 3-fold serial dilutions were made across the plate from well 1 to well 11. Well 12, the last well in a row on the plate, was left as untreated control. 100 μl compound solutions were then transferred to the wells, so the total volume of media was 200 μl per well. Plates were returned to a 37° C. incubator, and the cells were cultured for 72 hours. To measure cell proliferation after 72 hours, media was discarded from the plates, 50 μl/well of fresh medium was added, and 50 μl CellTiterGlo solution was added (Promega Cat#G7573). The plate was covered with a dark lid and incubated for 10 min. A white sealing tape was applied to the bottom of the plate, and the plate was read in a luminescence plate reader. […] 50 μl CellTiterGlo was added per well, and the plate was read in a luminescence plate reader after 10 min. The reading was plotted vs. cell number to generate a standard curve and the equation of the curve fit. The compound-treated sample luminescence readings were converted to cell numbers using the curve-fit equation. The percent of inhibition, using untreated control as 100% growth, was then calculated. GI50 was then calculated by GraphPad Prism.
Compound,GI50 [1] [µM],GI50 [2] [µM],GI50 [3] [µM]
"C=CC(=O)Nc1cc(CCC(N)=O)ccc1Nc1nc(Nc2cc(OC)ncc2C)ncc1C(F)(F)F [Compound I-400, N-(5-(3-amino-3-oxopropyl)-2-((2-((2-methoxy-5-methylpyridin-4-yl)amino)-5-(trifluoromethyl)pyrimidin-4-yl)amino)phenyl)acrylamide]",0.101 to 0.5,0.101 to 0.5,0.501 to 0.999
C=CC(=O)Nc1ccccc1Nc1nc(Nc2cc(OC)nc(N3CCN(C(C)=O)CC3)c2)ncc1C(F)(F)F [Compound I-92],< 0.1,< 0.1,< 0.1
"C=CC(=O)Nc1cc(CN2CCN(S(C)(=O)=O)CC2)ccc1Nc1nc(Nc2cc(OC)ncc2C)ncc1C(F)(F)F [Compound I-384, N-(2-((2-((2-methoxy-5-methylpyridin-4-yl)amino)-5-(trifluoromethyl)pyrimidin-4-yl)amino)-5-((4-(methylsulfonyl)piperazin-1-yl)methyl)phenyl)acrylamide]",< 0.1,< 0.1,0.101 to 0.5
"C=CC(=O)Nc1cc(C)ccc1Nc1nc(Nc2cc(OC)nc(N3CCN(C(C)=O)CC3)c2)ncc1C(F)(F)F [Compound I-93, N-(2-((2-((2-(4-Acetylpiperazin-1-yl)-6-methoxypyridin-4-yl)amino)-5-(trifluoromethyl)pyrimidin-4-yl)amino)-5-methylphenyl)acrylamide]",< 0.1,< 0.1,< 0.1
C=CC(=O)Nc1cc(C)ccc1Nc1nc(Nc2cc(OC)nc(OC)c2)ncc1C(F)(F)F [Compound I-96],0.101 to 0.5,< 0.1,< 0.1
"C=CC(=O)Nc1cc(C)ccc1Nc1nc(Nc2nc(OC)ncc2C#N)ncc1C(F)(F)F [Compound I-346, N-(2-((2-((5-cyano-2-methoxypyrimidin-4-yl)amino)-5-(trifluoromethyl)pyrimidin-4-yl)amino)-5-methylphenyl)acrylamide]",0.101 to 0.5,0.101 to 0.5,0.501 to 0.999
"C=CC(=O)Nc1cc(C)ccc1Nc1nc(Nc2ccnc3ccccc23)ncc1C(F)(F)F [Compound I-379, N-(5-methyl-2-((2-(quinolin-4-ylamino)-5-(trifluoromethyl)pyrimidin-4-yl)amino)phenyl)acrylamide]",0.101 to 0.5,0.101 to 0.5,0.101 to 0.5
"C=CC(=O)Nc1cc(C)ccc1Nc1nc(Nc2cc(C(C)=O)ccc2C)ncc1C(F)(F)F [Compound I-84, N-(2-((2-((5-Acetyl-2-methylphenyl)amino)-5-(trifluoromethyl)pyrimidin-4-yl)amino)-5-methylphenyl)acrylamide]",0.101 to 0.5,0.101 to 0.5,0.501 to 0.999
"C=CC(=O)Nc1cc(C)ccc1Nc1nc(Nc2cc(N[C@H]3CC[C@](C)(O)CC3)nc(OC)c2)ncc1C(F)(F)F [Compound I-327, N-(2-((2-((2-((trans-4-hydroxy-4-methylcyclohexyl)amino)-6-methoxypyridin-4-yl)amino)-5-(trifluoromethyl)pyrimidin-4-yl)amino)-5-methylphenyl)acrylamide]",< 0.1,–,< 0.1
"C=CC(=O)Nc1cc(C)ccc1Nc1nc(Nc2cc(OC)cnc2Cl)ncc1C(F)(F)F [Compound I-361, N-(2-((2-((2-chloro-5-methoxypyridin-3-yl)amino)-5-(trifluoromethyl)pyrimidin-4-yl)amino)-5-methylphenyl)acrylamide]",0.101 to 0.5,0.101 to 0.5,0.501 to 0.999
"C=CC(=O)Nc1cc(C)ccc1Nc1nc(Nc2cc(NCCOC)nc(OC)c2)ncc1C(F)(F)F [Compound I-294, N-(2-((2-((2-methoxy-6-((2-methoxyethyl)amino)pyridin-4-yl)amino)-5-(trifluoromethyl)pyrimidin-4-yl)amino)-5-methylphenyl)acrylamide]",< 0.1,< 0.1,< 0.1

# Next, values leading:
GI50 [1] [µM],GI50 [2] [µM],GI50 [3] [µM],Compound
0.101 to 0.5,0.101 to 0.5,0.501 to 0.999,"C=CC(=O)Nc1cc(C)ccc1Nc1nc(Nc2nc(OC)ncc2Cl)ncc1C(F)(F)F [Compound I-344, N-(2-((2-((5-chloro-2-methoxypyrimidin-4-yl)amino)-5-(trifluoromethyl)pyrimidin-4-yl)amino)-5-methylphenyl)acrylamide]"
0.101 to 0.5,0.101 to 0.5,0.501 to 0.999,"C=CC(=O)Nc1cc(C)ccc1Nc1nc(Nc2cc(OCCO)ncc2C)ncc1C(F)(F)F [Compound I-376, N-(2-((2-((2-(2-hydroxyethoxy)-5-methylpyridin-4-yl)amino)-5-(trifluoromethyl)pyrimidin-4-yl)amino)-5-methylphenyl)acrylamide]"
< 0.1,0.101 to 0.5,0.101 to 0.5,"C=CC(=O)Nc1cc(C)c(F)cc1Nc1nc(Nc2nc(OC)ncc2Cl)ncc1C(F)(F)F [Compound I-374, N-(2-((2-((5-chloro-2-methoxypyrimidin-4-yl)amino)-5-(trifluoromethyl)pyrimidin-4-yl)amino)-4-fluoro-5-methylphenyl)acrylamide]"
< 0.1,< 0.1,0.101 to 0.5,"C=CC(=O)Nc1cc(OCC(N)=O)ccc1Nc1nc(Nc2cc(OC)ncc2C)ncc1C(F)(F)F [Compound I-398, N-(5-(2-amino-2-oxoethoxy)-2-((2-((2-methoxy-5-methylpyridin-4-yl)amino)-5-(trifluoromethyl)pyrimidin-4-yl)amino)phenyl)acrylamide]"
0.501 to 0.999,0.101 to 0.5,0.501 to 0.999,"C=CC(=O)Nc1cc(C)ccc1Nc1nc(Nc2ncc(C(F)(F)F)c(OC)n2)ncc1C(F)(F)F [Compound I-354, N-(2-((2-((4-methoxy-5-(trifluoromethyl)pyrimidin-2-yl)amino)-5-(trifluoromethyl)pyrimidin-4-yl)amino)-5-methylphenyl)acrylamide]"
0.101 to 0.5,0.501 to 0.999,> 1,"C=CC(=O)Nc1cc(C)ccc1Nc1nc(Nc2nc(OC)ncc2C(F)(F)F)ncc1C(F)(F)F [Compound I-355, N-(2-((2-((2-methoxy-5-(trifluoromethyl)pyrimidin-4-yl)amino)-5-(trifluoromethyl)pyrimidin-4-yl)amino)-5-methylphenyl)acrylamide]"
0.101 to 0.5,0.101 to 0.5,> 1,"C=CC(=O)Nc1cc(C)ccc1Nc1nc(Nc2nc(OC)ncc2OC)ncc1C(F)(F)F [Compound I-349, N-(2-((2-((2,5-dimethoxypyrimidin-4-yl)amino)-5-(trifluoromethyl)pyrimidin-4-yl)amino)-5-methylphenyl)acrylamide]"
0.501 to 0.999,0.501 to 0.999,> 1,"C=CC(=O)Nc1cc(C)ccc1Nc1nc(Nc2ncc(F)c(OC)n2)ncc1C(F)(F)F [Compound I-356, N-(2-((2-((5-fluoro-4-methoxypyrimidin-2-yl)amino)-5-(trifluoromethyl)pyrimidin-4-yl)amino)-5-methylphenyl)acrylamide]"
< 0.1,0.101 to 0.5,0.501 to 0.999,"C=CC(=O)Nc1cc(C)ccc1Nc1nc(Nc2nc(OC)ncc2C)ncc1C(F)(F)F [Compound I-347, N-(2-((2-((2-methoxy-5-methylpyrimidin-4-yl)amino)-5-(trifluoromethyl)pyrimidin-4-yl)amino)-5-methylphenyl)acrylamide]"
0.101 to 0.5,> 1,> 1,"C=CC(=O)Nc1cc(C)ccc1Nc1nc(Nc2nc(OC)ccc2Cl)ncc1C(F)(F)F [Compound I-360, N-(2-((2-((3-chloro-6-methoxypyridin-2-yl)amino)-5-(trifluoromethyl)pyrimidin-4-yl)amino)-5-methylphenyl)acrylamide]"
0.101 to 0.5,< 0.1,0.501 to 0.999,"C=CC(=O)Nc1cc(C)ccc1Nc1nc(Nc2nc(OC)ncc2F)ncc1C(F)(F)F [Compound I-357, N-(2-((2-((5-fluoro-2-methoxypyrimidin-4-yl)amino)-5-(trifluoromethyl)pyrimidin-4-yl)amino)-5-methylphenyl)acrylamide]"
0.101 to 0.5,0.101 to 0.5,0.101 to 0.5,"C=CC(=O)Nc1cc(CN2CCN(C(C)=O)CC2)ccc1Nc1nc(Nc2cc(OC)ncc2C)ncc1C(F)(F)F [Compound I-381, N-(5-((4-acetylpiperazin-1-yl)methyl)-2-((2-((2-methoxy-5-methylpyridin-4-yl)amino)-5-(trifluoromethyl)pyrimidin-4-yl)amino)phenyl)acrylamide]"
< 0.1,< 0.1,0.101 to 0.5,"C=CC(=O)Nc1cc(CN2CCN(C(=O)c3cccnc3)CC2)ccc1Nc1nc(Nc2cc(OC)ncc2C)ncc1C(F)(F)F [Compound I-389, N-(2-((2-((2-methoxy-5-methylpyridin-4-yl)amino)-5-(trifluoromethyl)pyrimidin-4-yl)amino)-5-((4-nicotinoylpiperazin-1-yl)methyl)phenyl)acrylamide]"
